# Source: patent publication US8993559B2, “Use of ibogamine congeners for treating obesity” (Albany Medical College, priority 2008, dated 2015)
# “Also recorded” adds a separate entry of the source.
# Columns and labels:
# Sprague-Dawley rats = test: Operant sucrose self-administration procedure; assay type: in vivo, rat
# Description: Naïve female Sprague-Dawley rats (230-270 g; Taconic, Germantown, N.Y.) were housed individually and maintained on a normal 12 hr light cycle (light on/off at 7 a.m./7 p.m.) in the colony room. For all experiments, food (normal chow) and water were provided ad libitum. The experiments were conducted in accordance with the “Guide for the Care and Use of Laboratory Animals” (National Academy of Sciences, 1996).
# Rats were water deprived for 23 h so that shaping of the bar-press response could initially be accomplished by training rats to bar-press for water. Thereafter, in non-deprived rats, oral sucrose self-administration testing began with a 16-h nocturnal session followed by daily 1-h sessions, 5 days (Monday-Friday) a week. Rats were allowed access to two levers mounted 15 cm apart on the front wall of each operant test chamber (Coulbourn Instruments, Allentown, Pa.). A response on either of the two levers produced a sucrose reward (15% solution; 0.01 ml) on a FR1 TO 20 (fixed ratio 1 with a 20 sec time-out) schedule. After rates of sucrose self-administration stabilized (20% variation from one day to the next across 5 days), usually after 2 weeks of testing, 18-MC (10-40 mg/kg) or vehicle was administered i.p. 15 minutes before a test session. Each rat typically received two or three different treatments (in randomized order) spaced at least one week apart.
# The operant self-administration data were analyzed by two-way ANOVA with reward (sucrose vs. water) and dose of 18-MC as the main factors. Subsequent post hoc tests (Newman-Keuls) compared the effects of 18-MC to baseline.
# rats [1] = test: Ad libitum sucrose intake over 24 hours (choice of sucrose or water); assay type: in vivo, rat
# Description: FIG. 9 is a graph showing effects of 18-MC (10, 20, 40 mg/kg i.p.) on consumption of sucrose. Each bar represents mean 24 hour consumption of 5% sucrose solution expressed as percent of baseline (S.E.M.): *=p<0.05.
# As described above, systemic 18-MC can decrease operant responding for sucrose and local administration of 18-MC into the dorsolateral tegmentum can also do so. These findings, which were unanticipated, led to investigation of the possibility that 18-MC might be useful in decreasing intake of sweet substances when available ad libitum along with normal rat chow. Rats offered a choice of drinking sucrose (15%) or water have strong preferences (70-80%) for sucrose. […] Whether 18-MC's effect on sucrose intake has a consequence in terms of body weight regulation was explored in a subsequent study. Rats given unlimited access to sucrose (30%) for two weeks gained excessive weight, consistent with other studies of sucrose-induced obesity. […] 18-MC had no effect on the body weight of “normal” rats having only water available.
# rats [2] = test: Local administration of 18-MC into brain sites: drug self-administration and responding for sucrose; assay type: in vivo, rat
# From the text: FIG. 8 is a graph showing effects of local infusion of 18-MC into the basolateral amygdala on methamphetamine self-administration and responding for sucrose. Baseline methamphetamine infusions averaged (S.E.M.) 20.2±0.9 while baseline responding for sucrose averaged (S.E.M.) 27.1±2.1. Each data point represents the mean (S.E.M.) percent of baseline of 6-9 rats. (*=p<0.05-0.01).
# Although the medial habenula and the interpeduncular nucleus are the brain regions having the highest concentrations of α3β4 nicotinic receptors, moderate densities of these receptors are localized in the ventral tegmental area, in the basolateral amygdala, and in the dorsolateral tegmentum (caudal pedunculopontine and laterodorsal tegmental nuclei). […] The basolateral amygdala has also been very much implicated in reward-related phenomena, and associated with both stimulants and sucrose. Accordingly, to further investigate brain sites mediating 18-MC's effects on drug self-administration, it was determined if local administration of 18-MC into the dorsolateral tegmentum or basolateral amygdala would alter drug self-administration, the other three sites having already been examined. As done previously, sucrose (15%) was used as a control, non-drug reinforcer. Previously, local administration of 18-MC had no effect on responding for sucrose regardless of whether it was infused into the medial habenula, interpeduncular nucleus, or ventral tegmental area. […] The neural substrates for 18-MC's effects on morphine and sucrose self-administration clearly appear to be different, although both may involve α3β4 nicotinic receptors.
# α3β4 nicotinic receptors = α3β4 nicotinic receptors (Homo sapiens, UniProt P30926+P32297); settings: cited from earlier work
# α3β4 nicotinic receptors, sequence (P32297 32-505): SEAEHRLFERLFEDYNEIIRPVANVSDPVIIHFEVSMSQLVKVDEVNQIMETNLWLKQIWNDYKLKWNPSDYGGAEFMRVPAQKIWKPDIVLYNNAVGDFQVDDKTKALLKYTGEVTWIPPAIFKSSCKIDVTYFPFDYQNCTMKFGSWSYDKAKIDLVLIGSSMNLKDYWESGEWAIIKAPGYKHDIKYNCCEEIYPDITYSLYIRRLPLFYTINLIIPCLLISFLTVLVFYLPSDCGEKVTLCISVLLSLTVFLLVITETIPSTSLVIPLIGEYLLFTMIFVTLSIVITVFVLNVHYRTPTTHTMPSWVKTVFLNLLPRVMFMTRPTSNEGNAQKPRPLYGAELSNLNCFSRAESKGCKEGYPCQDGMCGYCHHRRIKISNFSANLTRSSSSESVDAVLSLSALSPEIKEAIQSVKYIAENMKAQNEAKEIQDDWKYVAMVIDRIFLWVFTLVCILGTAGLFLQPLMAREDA
# α3β4 nicotinic receptors, sequence (P30926 22-498): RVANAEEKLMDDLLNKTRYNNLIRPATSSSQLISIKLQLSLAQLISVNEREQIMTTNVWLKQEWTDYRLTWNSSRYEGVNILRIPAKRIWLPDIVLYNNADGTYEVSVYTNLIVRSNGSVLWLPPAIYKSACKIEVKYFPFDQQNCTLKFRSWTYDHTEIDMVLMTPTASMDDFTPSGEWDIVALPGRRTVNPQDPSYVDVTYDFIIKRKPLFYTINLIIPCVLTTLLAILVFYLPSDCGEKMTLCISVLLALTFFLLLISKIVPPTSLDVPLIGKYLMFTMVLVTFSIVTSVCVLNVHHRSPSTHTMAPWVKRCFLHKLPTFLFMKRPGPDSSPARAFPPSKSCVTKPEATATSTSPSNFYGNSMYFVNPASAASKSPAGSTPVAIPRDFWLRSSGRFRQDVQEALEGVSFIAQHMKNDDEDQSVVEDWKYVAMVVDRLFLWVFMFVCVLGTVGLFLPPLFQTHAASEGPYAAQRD
smiles,measurement,setting,value
"COCC[C@H]1CC2CN3CCc4c([nH]c5ccccc45)[C@](C(=O)OC)(C2)[C@H]13 [18-MC, 18-methoxycoronaridine]",effect on sucrose responding,"Sprague-Dawley rats; 18-MC 20 mg/kg i.p., 10, 15 and 20% sucrose",no significant effect
same,decrease of sucrose responding,"Sprague-Dawley rats; 18-MC 20 mg/kg i.p., not significant",10-20%
same,operant responding for sucrose,"Sprague-Dawley rats; 18-MC 40 mg/kg i.p., 15 min before 1-h session, 15% sucrose",reduced; also recorded: decreased
same,operant responding for water,"Sprague-Dawley rats; 18-MC up to 40 mg/kg i.p., water 0.01 ml/barpress",no effect
same,water intake over the 24 hours following administration,rats [1]; 18-MC 10-40 mg/kg i.p.,no significant effect
same,intake of sucrose over the 24 hours following administration,"rats [1]; 18-MC 10-40 mg/kg i.p., sucrose (15%) or water",decreased
same,ceiling dose beyond which no further effect on ad libitum sucrose intake,rats [1]; dose range 10-40 mg/kg i.p.,10 mg/kg
same,responding for sucrose,"rats [2]; infused into the medial habenula, interpeduncular nucleus, or ventral tegmental area (previous work)",no effect
same,methamphetamine self-administration,rats [2]; local administration into the basolateral amygdala,decreased
same,responding for sucrose,"rats [2]; local administration into the basolateral amygdala, 15% sucrose",decreased
same,morphine or methamphetamine self-administration,rats [2]; local administration into the dorsolateral tegmentum,no effect
same,responding for sucrose,"rats [2]; local administration into the dorsolateral tegmentum, 15% sucrose",decreased
same,action at α3β4 nicotinic receptors,α3β4 nicotinic receptors,selective antagonist; also recorded: noncompetitive antagonist
